Data from patent publication EP1383722B1, “INHIBITION OF POPCORN POLYMER GROWTH” (BAKER HUGHES INCORPORATED, priority 2001, dated 2002).

Test: Popcorn Polymer Glass Tube Reaction Test Method
Settings: total additive 250 ppm, 60°C, 14 to 28 days
Procedure: The Popcorn Polymer Glass Tube Reaction Method allows for the evaluation of many samples at once, and may be described as follows: • 1. Obtain butadiene popcorn polymer "seeds" (in the Examples of this invention the seeds were obtained in 1996 from a BD holding tank). Activate popcorn polymer "seeds" overnight with a 150 watt flood lamp. The "seeds" are firstplaced in a petri dish and covered. Then they are exposed to white light from the lamp for approximately 20 hours. The lamp is positioned 12 inches (30.5 cm) above the dish. • 2. To glass reaction vessels add 1 ml of deionized water. To the glass reaction vessel and water place approximately 0.6200 gms of BD popcorn "seed". Add inhibitor, if any, into the water and seal the reaction vessel with a TEFLON adapter. Completely seal off the adapter by use of a metal adapter plug. Using a gas-tight syringe, inject 15mls of butadiene monomer into the reaction vessel by way of a septum port located at the top of the TEFLON adapter. • 3. Next, place the reaction vessel containing BD popcorn "seed" and butadiene monomer into a block incubator bath which is capable of maintaining a constant temperature of 60°C. Allow the test to run for 14 to 28 days. Remove the reaction vessel from the incubator bath. • 4. Vent the BD out of the vessel by slowly opening the metal adapter plug. Slowly open the reaction vessel and decant the water/BD mixture. Rinse the wet polymer with n-heptane until most of the n-heptane is essentially clear of haze. Blow dry nitrogen into the reaction vessel to further dry the poly-mer. Remove the popcorn polymer carefully with tweezers and spatula and place in a 100 ml beaker. Wash the popcorn polymer material three times with 30 ml aliquots of n-heptane. • 5. Transfer the popcorn polymer sample into a petri dish. Place dish into a vacuum oven. Dry sample at 212°F (100°C) under a 30 mmHg vacuum for 30 minutes. Remove dish and sample from oven. Place dish and popcorn polymer sample in a desiccator. Cool for 1 hour and record the weight of the popcorn polymer. The weight of new polymer growth can be obtained by subtracting the original seed weight from the total popcom polymer weight.

Compound	%Inhibition (Table III) [%]	Polymer formed mg/15ml (Table III) [mg/15ml]	%Inhibition (Table II) [%]	Polymer formed mg/15ml (Table II) [mg/15ml]
COc1cc(C(C)(C)C)c(O)c(C(C)(C)C)c1 [compound 19, 2,6-di-tert-butyl-4-methoxyphenol]	77	108	–	–
CC(C)(C)c1cc(O)ccc1O [compound 8, tert-butyl hydroquinone]	–	–	30	770
CC1(C)CCCC(C)(C)N1[O] [compound 7, 2,2,6,6-tetramethyl-1-piperidinyloxyl]	83	80	50	550
